Results: patent US20260263529A1, “BIOENGINEERED COLON-SPECIFIC IMUNE NICHE FOR THE TREATMENT OF ULCERATIVE COLITIS” (THE BOARD OF REGENTS OF THE UNIVERSITY OF TEXAS SYSTEM, priority 2023, published 2026)

Key:
[1] = Aqueous electrophoresis (zeta potential); assay type: physicochemical; conditions: dispersed in 1X PBS, diluted 100 times with deionized water, pH 6.8-8.0, 25° C.
Procedure: Sphere-equivalent intensity-average diameters (Dh) and zeta potentials of all NF samples were measured in a Malvern Zetasizer Pro instrument.

[2] = tested on: B16OVA tumor-bearing mice; assay: Copanlisib-triggered colitis in B16OVA tumor model; assay type: in vivo, C57BL/6 mice; conditions: copanlisib 25 mg/kg i.p.
Procedure: B16F10, B16OVA, and MC38 xenograft tumors were inoculated into healthy C57BL/6 mice (female, 7 to 8 weeks old) through s.c. inoculation of B16F10 cells (2.5×10^5 cells/mouse) in serum-free DMEM, B16OVA cells (2.5×10^5 cells/mouse) in serum-free RPMI 1640 culture medium, and MC38 cells (5×10^5 cells/mouse) in serum-free DMEM in the right flank. Tumor volume (volume=0.5×a×b^2, where a is the large diameter and b is the small diameter) was measured every 2 to 3 days from day 7 after the tumor was inoculated.
For the COP-triggered colitis study in the B16OVA tumor model, COP treatment was provided by i.p. administration of COP (25 mg/kg, in saline) at days 6, 8, 10, 12, 14, 16 and 18 after tumor inoculation. Colitis was induced by feeding the tumor-bearing mice 3% DSS at day 14 for 4 days. For the colitis treatment group, mice received a single s.c. treatment with COMBO COIN at day 18. Bodyweight and DAI scores were monitored every 2 or 3 days. Mice were euthanized at 22 days post-inoculation. Colons were preserved by trained veterinary technicians at the UTSW ARC Diagnostic Laboratory without prior knowledge of the treatment. The lengths of preserved colons were measured and fixed with 10% NBF for 24 h. Fixed specimens were kept in 70% ethanol and transferred to the UTSW Histo Pathology Core for histological study (H&E, Ki67 and TUNEL stains).

Row | colitis symptoms induced by cancer treatment [2] | Compound | Average zeta potential [1] | B16OVA tumor growth [2]
1 |  | ACESPLKRQCGGG [TGF-β1 mimetic peptide] | +22.1 ± 3.1 mV | 
2 | induced mild colitis symptoms | COc1c(OCCCN2CCOCC2)ccc2c1N=C(NC(=O)c1cnc(N)nc1)N1CCN=C21 [Copanlisib, copanlisib] |  | effectively inhibited B16OVA tumor growth
